{"source": "patent US20050136040A1", "about": "“Control of gene expression using a complex of an oligonucleotide and a regulatory peptide” (Imperial College Innovations Limited, priority 2001, published 2005)", "key": {"[1]": {"tested_on": "androgen receptor gene", "experiment": "RT-PCR of androgen receptor mRNA, LNCap cells treated with ARP-L218 and cyproterone acetate", "format": "cell-based, human", "conditions": "3 days", "description": "(§1) RT-PCR analysis of androgen receptor mRNA. After ethidium bromide staining the quantity of electrophoresed amplicons was determined in arbitrary units using a Labworks image reader.\nARP-L218 was prepared in phosphate buffer saline (PBS), 0.2 μm syringed filtered and used on day of test set-up.\nLNCap cells were transfected with ARP-L218 using lipofectamine2000 (cationic activated dendrimer, InVitrogen life technologies) with/without antagonist. Various amounts of ARP-L218 were mixed with a fixed amount of lipofectamine2000 (3 μl) in a total volume of 100 μl serum free medium without antibiotics (OptiMEM). After 20 mins incubation at room temperature, the transfection mixture was added to cells at 70% confluency and cells were incubated for 3 days.\n(§2) RNA was extracted and RT-PCR analysis of AR mRNA levels conducted as described above."}, "[2]": {"tested_on": "PSA", "experiment": "Secreted PSA by immunoassay in LnCap cells with or without R1881 (Example 2)", "format": "cell-based, human", "conditions": "LnCap control cells (no or irrelevant oligonucleotide-peptide fusion), 72 hours", "description": "In an example, the prostate cancer cell line LnCap is treated with the oligonucleotide-peptide fusion comprising a MAD1 or Sap18 peptide as described in Example 1. Transfected cells are optionally identified and/or isolated (for example using a GFP marker and FACS techniques) and are assayed for androgen receptor gene expression as well as for the classic prostate cancer marker PSA. For example, GFP-positive, FACS sorted cells were cultured in the presence or absence of the AR agonist R1881. After 72 hours, culture media were collected and the amount of the androgen-regulated protein PSA determined by immunoassay. Addition of R1881 results in an approximately 25-fold increase in levels of secreted PSA in control cells (with no oligonucleotide-peptide fusion, or an irrelevant oligonucleotide-peptide fusion)."}, "[3]": {"tested_on": "androgen receptor gene", "experiment": "RT-PCR of androgen receptor mRNA, LNCap cells treated with ARP-L218 and R1881", "format": "cell-based, human", "conditions": "3 days; for AR mRNA Percentage of control: vs PBS treated control", "description": "as §1\nThe effect of ARP-L218 on androgen receptor gene expression with and without a synthetic androgen (R1881) was measured using the protocol outlined in the above section.\nARP-L218 was prepared in phosphate buffer saline (PBS), 0.2 μm syringed filtered and used on day of test set-up. R1881 (synthetic androgen) was purchased from Perkin Elmer, Catalogue number NLP005005MG.\nLNCap cells were transfected with ARP-L218 using lipofectamine2000 (cationic activated dendrimer, InVitrogen life technologies) with/without agonist. Various amounts of ARP-L218 were mixed with a fixed amount of lipofectamine2000 (3 μl) in a total volume of 100 μl serum free medium without antibiotics (OptiMEM). After 20 mins incubation at room temperature, the transfection mixture was added to cells at 70% confluency and cells were incubated for 3 days.\nas §2"}, "[4]": {"tested_on": "Prostate specific antigens (PSA) protein levels", "experiment": "Total PSA in LNCap cell supernatants, chemiluminescent immunometric assay", "format": "cell-based, human", "conditions": "LNCap supernatant, 3 days", "description": "Cells were incubated in the presence of R1881 for 3 days. PSA levels in the supernatants were measure by ELISA. Each column represent total prostate specific antigen (PSA).\nTherefore, using the protocols described in Example 8 ARP-L218 was transfected into LNCap cells (GET/LNC/W39/P6) with Lipofectamine 2000 (InVitrogen) with or without R1881 (Perkin Elmer), a synthetic androgen, for 3 days, after which the supernatant were harvested for quantitation of total PSA protein at the Pathology Centre, Hammersrnith Hospital, London, U.K.\nPSA measurements were carried out by a chemiluminescent labelled immunometric assay using an automated immunoassay analyser (Abbott Architect Immunoassay Analyser)."}, "[5]": {"tested_on": "interferon stimulated response element (IRE) of the human 6-16 gene", "experiment": "Interferon-induced EGFP expression by FACS in modified HT1080 cells (C8)", "format": "cell-based", "conditions": "for Interferon-induced GFP expression: +INF 300 units/ml for one day", "description": "Cells habouring EGFP under the control of the interferon stimulated response element (ISRE) of the human 6-16 gene were transiently transfected with different compounds. Cells were then treated with 300 units/ml of IFN for one day and analysed by FACS for the GFP expression. • a) Parental cell line, no treatment • b) Cells expressing the stably transfected construct (C8), no treatment • c) C8 treated with interferon (+INF) • d) C8 transfected with 500 pm TFO, +INF • e) C8 specific TFO 1000 pM, +INF • f) C8, GeneICE1 500 pM, +INF • g) C8, GeneICE 2 500 pM, +INF • h) C8, unspecific control TFO 500 pM, +INF • i) C8, unspecific control TFO 1000 pM, +INF\nThese cells have a stably incorporated gene expressing EGFP under the control of the interferon stimulated response element (IRE) of the human 6-16 gene.\nFor the following data, cells were transiently transfected with different compounds using standard lipofectamine protocols. Cells were then treated with 300 units/ml of interferon (INF) for one day and analysed by FACS for the GFP expression."}}, "note": "[5FU] = 5-fluoro-deoxyuracil base", "data": [{"molecule": "CC(=O)O[C@]1(C(C)=O)CC[C@H]2[C@@H]3C=C(Cl)C4=CC(=O)[C@@H]5C[C@@H]5[C@]4(C)[C@H]3CC[C@@]21C", "note": "[Cyproterone Acetate, Cyproterone acetate]", "values": [{"measurement": "androgen receptor gene expression levels (in words)", "setting": "[1]", "result": "can act to reduce AR gene expression"}, {"measurement": "AR band quantitation", "setting": "[1]; Cyproterone Acetate 0.1 nM", "result": 2357}, {"measurement": "AR mRNA % of control", "setting": "[1]; Cyproterone Acetate 0.1 nM", "result": 54.0, "unit": "%"}, {"measurement": "AR band quantitation", "setting": "[1]; Cyproterone Acetate 10 nM", "result": 2401}, {"measurement": "AR mRNA % of control", "setting": "[1]; Cyproterone Acetate 10 nM", "result": 51.5, "unit": "%"}, {"measurement": "AR band quantitation", "setting": "[1]; Cyproterone Acetate 1 uM", "result": 1868}, {"measurement": "AR mRNA % of control", "setting": "[1]; Cyproterone Acetate 1 uM", "result": 47.8, "unit": "%"}, {"measurement": "AR band quantitation", "setting": "[1]; Cyproterone Acetate 10 uM", "result": 1568}]}, {"molecule": "C[C@]1(O)CC[C@H]2[C@@H]3CCC4=CC(=O)CCC4=C3C=C[C@@]21C", "note": "[R1881]", "values": [{"measurement": "increase in levels of secreted PSA on addition of R1881", "setting": "[2]", "result": "approximately 25 fold"}, {"measurement": "androgen receptor gene expression levels (in words)", "setting": "[3]", "result": "can act to reduce AR gene expression"}, {"measurement": "AR Ratio/beta-actin", "setting": "[3]; R1881 0.01 nM", "result": 0.237}, {"measurement": "AR band quantitation", "setting": "[3]; R1881 0.01 nM", "result": 2083}, {"measurement": "AR band quantitation Average", "setting": "[3]; R1881 0.01 nM", "result": 2083}, {"measurement": "AR mRNA Percentage of control", "setting": "[3]; R1881 0.01 nM", "result": 71.73, "unit": "%"}, {"measurement": "AR Ratio/beta-actin", "setting": "[3]; R1881 1 nM", "result": 0.103}, {"measurement": "AR band quantitation", "setting": "[3]; R1881 1 nM", "result": 1471}, {"measurement": "AR band quantitation Average", "setting": "[3]; R1881 1 nM", "result": 1471}, {"measurement": "AR mRNA Percentage of control", "setting": "[3]; R1881 1 nM", "result": 31.29, "unit": "%"}, {"measurement": "AR Ratio/beta-actin", "setting": "[3]; R1881 100 nM", "result": 0.116}, {"measurement": "AR band quantitation", "setting": "[3]; R1881 100 nM", "result": 1455}, {"measurement": "AR band quantitation Average", "setting": "[3]; R1881 100 nM", "result": 1455}, {"measurement": "AR mRNA Percentage of control", "setting": "[3]; R1881 100 nM", "result": 35.17, "unit": "%"}, {"measurement": "AR Ratio/beta-actin", "setting": "[3]; R1881 1 uM", "result": 0.165}, {"measurement": "AR band quantitation", "setting": "[3]; R1881 1 uM", "result": 1388}, {"measurement": "AR band quantitation Average", "setting": "[3]; R1881 1 uM", "result": 1388}, {"measurement": "AR mRNA Percentage of control", "setting": "[3]; R1881 1 uM", "result": 49.92, "unit": "%"}, {"measurement": "effect on PSA levels (in words)", "setting": "[4]", "result": "show an increase in PSA levels"}, {"measurement": "Total PSA", "setting": "[4]; R1881 0.01 nM", "result": 372, "unit": "ng/mL"}, {"measurement": "Total PSA", "setting": "[4]; R1881 100 nM", "result": 1980, "unit": "ng/mL"}]}, {"molecule": "specific TFO: IRE TFO (5′) GGGUGGTGGGGTTGTGTT (3′), U = 5-fluro-deoxyuracil, without peptide (DNA, [5FU] at 4, backbone not given here)", "values": [{"measurement": "Interferon-induced GFP expression", "setting": "[5]; 500 pM", "result": 53, "unit": "%"}, {"measurement": "Interferon-induced GFP expression", "setting": "[5]; 1000 pM", "result": 63, "unit": "%"}, {"measurement": "average repression of INF induced GFP expression", "setting": "[5]; +INF, average over the conditions of Table 4", "result": 42, "unit": "%"}]}]}
